Several values for one entry are separate records, joined by “and”; a condition that tells them apart may be missing. Equal entries are not always repeated. Where two headings read alike, the source gives them in different places.
Assays:
[1] = tested on: juvenile rainbow trout (Oncorhynchus mykiss); assay: Bioconcentration (BCF) experiment based on OECD 305, aqueous exposure to surfactant mixtures; type: in vivo; conditions: for uptake rate constant (kU): 14 d exposure, 28 d depuration; for uptake rate constant (kU) / BCF (kU/kT) / measured total elimination rate constant (kT): whole fish
Procedure: (§1) Juvenile rainbow trout were purchased from EM lax in Västervik, Sweden, and held in the aquaria facility for one month prior to starting the experiment on August 28, 2018. Ethical approval for the experiments was obtained from Stockholm’s djurförsöksetiska nämnd (decision 9967–2017). The experiment was conducted in six 350 L fiberglass aquaria with a water renewal rate of 1.5 L min^–1 corresponding to a turnover time of […]. The water temperature and the air temperature in the aquaria room were 10 °C. The lighting was dim and programmed on a 12 h light/12 h dark cycle.
(§2) Three BCF experiments were conducted, one each for MIX1 and MIX2 at pH ∼7.6 (denoted MIX1 and MIX2 in the following), and one for MIX1 at pH ∼6.2 (MIX1pH). Each experiment consisted of a 14 d exposure phase and a 28 d depuration phase. There were also two control aquaria where unexposed fish were kept, one at pH 7.6 and one at pH 6.2. For the pH 6.2 aquaria, a 20% v:v formic acid solution was pumped into a premixing basin where it was mixed with the inflowing water before entering the aquarium. pH sensors monitored pH in the premixing basin and the aquarium. The pH for the MIX1 and MIX2 experiments was governed by the pH of the water supply. Water samples were collected at 8 time points during each experiment for the determination of pH and alkalinity. Water samples were collected daily during the exposure phase for determination of total organic carbon (TOC), which was measured with NDIR detection after acidification, purging and high-temperature catalytic combustion (Shimadzu TOC-L).
(§3) For the exposure phase, a methanol solution of the test chemical mixture was infused continuously at 4.0 μL min^–1 into the water inflow of the aquarium using a syringe pump. The target concentrations of the chemicals in water ranged from 2.5 to 100 μg L^–1 (Table 1). They were selected to be as low as possible to minimize the risk of toxic effects while still being high enough to enable collection of high-quality data, building on the results of the tissue distribution experiment.[32] The syringe pump was started in an aquarium containing no fish. After 16 h to allow the concentrations to stabilize, ∼80 rainbow trout were transferred to the aquarium. Over the following 14 d water samples were collected and fish were sacrificed according to the schedule in Table S5. The remaining fish were then transferred to a second aquarium that received water without chemical addition. Over the following 28 d further water samples were collected and fish were sacrificed (Table S5).
(§4) At each fish sampling, 4–6 fish were sacrificed. Fish were also sampled periodically from the control aquaria. Following stunning and severance of the spinal cord, the fish were placed in a polyethylene bag, weighed, and immediately frozen at −20 °C. The median fish weight at sacrifice was 10.94 g, with a 25th and 75th percentile of 8.43 and 13.58 g, respectively.
(§5) Three fish from each time point were prioritized for analysis based on proximity to the median fish weight. Each fish was semithawed, cut into 3–4 pieces, and homogenized with an Ultra-Turrax device. 150 mg of the homogenate was transferred to a preweighed 13 mL polypropylene tube, centrifuged to a pellet, and weighed. 50 μL of methanol was added and the prepared aliquot was frozen. For extraction internal standard solution (isotope labeled standards of Q10 (D21), Q14 (D29), and P16 (D33)), 3 mL of methanol and 3 steel balls (3.2 mm diameter) were added to the prepared aliquot. This mixture was mixed in a bullet blender for 1 min, and then placed in an ultrasound bath at 50 °C for 60 min. Following centrifugation, the supernatant was decanted and the extraction was repeated. The extracts were combined and a portion corresponding to 25–50 mg homogenate was cleaned up on a weak cationic exchange SPE column (WCX, 60 mg) as described elsewhere.[32] […]

[2] = tested on: gills of rainbow trout; assay: Mechanistic one-box mass balance model of gill uptake and elimination; conditions: for predicted gill elimination rate constant eq 1 (k2): from measured kU and modeled αW, αB, DFW
Text: To gain more mechanistic insight into the results, we formulated a simple one-box mass balance model of chemical bioconcentration in fish that considered diffusive uptake and elimination across the gills as well as biotransformation.[33] The flow of water across the gills and the flow of blood through the gills were modeled as perfusion limited resistances that constrain gill uptake and elimination. […] Consequently, these resistances are unknowns. Ion trapping effects caused by differences in pH between water at the gill surface and blood in the gills are considered, drawing on previous work on the uptake and elimination of ionizable organic chemicals across the gills of rainbow trout.[22],[23] Partitioning of the chemical from the dissolved phase into blood and into whole fish was calculated as the product of the membrane lipid–water distribution ratio (DMLW,T, including partitioning of both the neutral and the charged forms) and the fraction of membrane lipid in blood and whole fish. A detailed description of the model is provided in the SI (Text S3).
The contribution of the water perfusion and blood perfusion resistances were compared with the overall resistance for transport across the gills from water to blood (RW→B), which was calculated from the measured kU according to equation S4.3. […] For all of the other chemicals the blood resistance is insignificant compared to the overall resistance.
The rate constant for elimination across the gills, k2, can be defined as follows: [drawing 1] 1 where αB and αW are the neutral fractions of the chemical in the blood and in the water at the gill surface, respectively, and DFW is the fish-water distribution ratio of the chemical at the pH of blood (8.1) (see Text S3). Using the measured kU and the values of αW, αB, and DFW estimated for the model, k2 was calculated (Table 2).

[3] = Membrane-water partition coefficient of the charged form (DMLW,C); type: physicochemical; conditions: extrapolated from Timmer and Droge (2017)
Procedure: Table S3: Test chemical properties
Abbr. pKa$ Log DOC§ Log DMLW,C# SMILES
$ pKa values derived/reported for different alkylamine type analogues. The selected value is expected to be independent of chain length for all longer chain homologues, using a weighted value obtained from the different sources with more focus on experimental data:
Algorithm / simulated data Experimental reference data (25 °C)
Chem ACD/ COSMO- selected
(https://echa.europa.eu/registration-dossier/-

[4] = tested on: rainbow trout; assay: Semiquantitative screening of demethylation metabolites in exposed fish; type: in vivo; conditions: last time point of the exposure phase
Procedure: Semiquantitative screening of possible demethylation metabolites was conducted in the fish collected at the last time point of the exposure phase. […] Demethylation of T10 to form S10 was reported in an in vitro S9 assay, and it was proposed that this is an important elimination mechanism for tertiary amines in fish.[27] There is in vitro evidence that demethylation of secondary alkylamines also occurs, which will be reported elsewhere.[37]

[5] = parameters: method as in Perrin 1965, SRC, REACH, Perrin 1972, Hall 1957; conditions: selected per amine type, weighted from simulated and experimental analogue data; ref Perrin 1965, SRC, REACH, Perrin 1972, Hall 1957; cited from earlier work
[6] = Bioconcentration (BCF) experiment based on OECD 305, aqueous exposure to surfactant mixtures; type: in vivo, Oncorhynchus mykiss; conditions: whole fish, read-out: measured total elimination rate constant (kT) (converted)
Procedure: as §1, §2, §3, §4, §5

[7] = tested on: rainbow trout; parameters: method as in PMID 32062967; conditions: after the 7 d exposure; cited from earlier work
[8] = ref Timmer and Droge (2017); cited from earlier work
[9] = Estimated neutral fraction in water at the fish gill surface; conditions: pH 7.6 experiments; estimated pKa of 10
Text: The BCF was markedly lower for the QACs compared to tertiary amines with the same chain length: a factor >670 for Q10 compared to T10, and a factor 160 for Q14 compared to T14 (Figure 1, upper panel). The prominent structural difference between the QACs and the analogous tertiary amines is that the former are permanently charged, while the latter exist in both a charged (protonated) and a neutral form.
Text S5: Estimation of pH at the gill surface
The pH at the surface of the gills was calculated using the following system of 5 equations:
alk = 2 × [CO2 ― ] + [HCO ― ] (3)
DIC = [H CO ] + [HCO ― ] + [CO2 ― ] (4) where alk is alkalinity and DIC is total dissolved inorganic carbon. The dissociation constants K1 and K2 were estimated from water temperature according to equations 9.23 and 9.24 in http://www-naweb.iaea.org/napc/ih/documents/global_cycle/vol%20I/cht_i_09.pdf The measured pH and alkalinity in bulk water were used to solve for [H+], [HCO3-], [CO32-], [H2CO3] and DIC. For the water in the gill lamella, the carbon added to the water via respiration (0.0002 mol L-1 based on estimated oxygen demand and gill ventilation rate for a 10 g fish at 10 °C (Arnot et al. 2008, Armitage et al. 2013)) was added to DIC, and using this new DIC and the alkalinity the 5 equations were resolved for [H+], [HCO3-], [CO32-], [H2CO3] and pH. […]

measured total elimination rate constant (kT) ([1]; pH 7.6 (MIX1, MIX2))	Compound	factor by which BCF is lower at pH 6.2 than at pH 7.6 ([1]; MIX1 vs MIX1pH)	factor by which kT is greater at pH 6.2 than at pH 7.6 ([1]; MIX1 vs MIX1pH)	uptake rate constant (kU) ([1]; pH 6.2 (MIX1pH))	BCF (kU/kT) ([1]; pH 6.2 (MIX1pH))	uptake rate constant (kU) ([1]; pH 7.6 (MIX1, MIX2), 10 °C)	BCF (kU/kT) ([1]; pH 7.6 (MIX1, MIX2))	k2/kT ([2]; pH 6.2 (MIX1pH))	predicted gill elimination rate constant eq 1 (k2) ([2]; pH 6.2 (MIX1pH))	modeled water resistance as share of the measured uptake resistance ([2]; pH 7.6)	k2/kT ([2]; pH 7.6 (MIX1, MIX2))	predicted gill elimination rate constant eq 1 (k2) ([2]; pH 7.6 (MIX1, MIX2))	Log DMLW,C (membrane-water partition coefficient of the charged form) [3]	demethylation metabolites observed in fish [4]	pKa used (selected value) [5]	fraction in gills and skin/mucus [7]	Log DMLW,C (membrane-water partition coefficient of the charged form) [8]	also measured
	CCCCCCCCCCCCCCCCN [P16, Hexadecylamine]	2	no pH dependency for kT	7.8 L kg^–1 h^–1	3000 L kg^–1	15.3 L kg^–1 h^–1	6100 L kg^–1	0.09	0.00023 h^–1	exceeds 50%	0.01	0.00003 h^–1	7.90		C16NH2 (10.6)	73%		k el ([6]; pH 6.2 (MIX1pH)): 7.22e-07 s⁻¹; k el ([6]; pH 7.6 (MIX1, MIX2)): 6.94e-07 s⁻¹; factor by which kU is lower at pH 6.2 than at pH 7.6 ([1]; MIX1 vs MIX1pH): 2; pH dependency of k2 (factor between pH 7.6 and pH 6.2) ([2]; MIX1 vs MIX1pH): 7
0.0066 h^–1	CCCCCCCCCCCCNC [S12, N-methyldodecylamine]					5.5 L kg^–1 h^–1	840 L kg^–1				0.6	0.004 h^–1		P12, a metabolite of S12, was also observed	C12N(CH3)H (10.8)		5.39	
0.0034 h^–1	CCCCCCCCCCCCCCN(C)C [T14, N,N-dimethyltetradecylamine]					27 L kg^–1 h^–1	8100 L kg^–1				1.2	0.004 h^–1	6.46		C14N(CH3)2 (10.0)			factor by which kU is higher than for Q14 ([1]; pH 7.6): 260; neutral fraction in the water at the fish gill surface [9]: approximately 0.002
0.0027 h^–1	CCCCCCCCCCCCCCCCNC [S16, N-methylhexadecylamine]					22 L kg^–1 h^–1	8200 L kg^–1				0.03	0.00007 h^–1	7.71	P16 was not detected	C16N(CH3)H (10.8)	71%		

Compound	measured total elimination rate constant (kT) ([1]; pH 7.6 (MIX1, MIX2))	factor by which BCF is lower at pH 6.2 than at pH 7.6 ([1]; MIX1 vs MIX1pH)	factor by which kT is greater at pH 6.2 than at pH 7.6 ([1]; MIX1 vs MIX1pH)	uptake rate constant (kU) ([1]; pH 6.2 (MIX1pH))	BCF (kU/kT) ([1]; pH 6.2 (MIX1pH))	uptake rate constant (kU) ([1]; pH 7.6 (MIX1, MIX2), 10 °C)	BCF (kU/kT) ([1]; pH 7.6 (MIX1, MIX2))	k2/kT ([2]; pH 6.2 (MIX1pH))	predicted gill elimination rate constant eq 1 (k2) ([2]; pH 6.2 (MIX1pH))	modeled water resistance as share of the measured uptake resistance ([2]; pH 7.6)	k2/kT ([2]; pH 7.6 (MIX1, MIX2))	predicted gill elimination rate constant eq 1 (k2) ([2]; pH 7.6 (MIX1, MIX2))	Log DMLW,C (membrane-water partition coefficient of the charged form) [3]	demethylation metabolites observed in fish [4]	pKa used (selected value) [5]	fraction in gills and skin/mucus [7]	Log DMLW,C (membrane-water partition coefficient of the charged form) [8]	also measured
CCCCCCCCCCCCCN(C)C [T13, N,N-dimethyltridecylamine]	0.0049 h^–1	9.5	3 and 2.8	4.7 L kg^–1 h^–1	340 L kg^–1	15.9 L kg^–1 h^–1	3200 L kg^–1	2.8	0.039 h^–1	exceeds 50%	1.9	0.010 h^–1	5.88	trace levels of the corresponding primary amines	C13N(CH3)2 (10.0)			measured total elimination rate constant (kT) ([1]; pH 6.2 (MIX1pH)): 0.0139 h^–1; BCF compared with REACH B (2000) and vB (5000) thresholds ([1]; pH 7.6): greater than 2000 L kg ww^–1
CCCCCCCCCN(C)C [T9, N,N-dimethylnonylamine]	0.059 h^–1					2.0 L kg^–1 h^–1	35 L kg^–1				4.6	0.27 h^–1		trace levels of the corresponding primary amines	C13N(CH3)2 (10.0)		3.07	factor by which k2 exceeded kT ([2]; pH 7.6): ~5

Reference: PMC8277129, “Bioconcentration of Several Series of Cationic Surfactants in Rainbow Trout” (Environmental Science & Technology, 2021)
